Reference: US7875647B2, “Heteroaryl-pyrazole derivatives as cannabinoid CB1 receptor antagonists” (Green Cross Corporation, priority 2006, dated 2011)
pIC50: −log10 of the molar value. Where two headings read alike, the source gives them in different places.

Target: T1, Cannabinoid-1 receptor (CB1R) (Rattus norvegicus, UniProt P20272)
T1 construct: The tissue obtained from the brain of SD rats was homogenized; from tissue; host or cells: brain of SD rats (membrane pellet of the homogenate)
Assay: Cannabinoid-1 receptor (CB1R) binding affinity assay ([3H]CP-55940, rat CB-1 receptor binding protocol)
Conditions: brain tissue of SD rats, [3H]CP-55940, 30° C. 60 min; for pIC50: read-out: IC50; for IC50: IC50(nM)

T1 sequence (P20272 whole entry): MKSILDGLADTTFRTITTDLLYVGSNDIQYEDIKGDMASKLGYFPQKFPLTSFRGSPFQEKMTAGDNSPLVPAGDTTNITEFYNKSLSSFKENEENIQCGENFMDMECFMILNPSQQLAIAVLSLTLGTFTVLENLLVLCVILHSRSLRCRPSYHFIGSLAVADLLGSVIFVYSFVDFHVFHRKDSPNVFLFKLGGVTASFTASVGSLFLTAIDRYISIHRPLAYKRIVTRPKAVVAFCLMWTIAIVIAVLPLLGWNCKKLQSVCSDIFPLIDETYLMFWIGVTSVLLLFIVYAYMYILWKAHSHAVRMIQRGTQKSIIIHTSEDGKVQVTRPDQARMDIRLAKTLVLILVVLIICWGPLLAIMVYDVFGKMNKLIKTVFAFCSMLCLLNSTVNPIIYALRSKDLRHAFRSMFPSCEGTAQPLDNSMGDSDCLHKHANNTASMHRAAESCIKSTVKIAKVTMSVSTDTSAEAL

pIC50 | SMILES | IC50 [nM]
8.03 | CCc1c(-c2nnc(C3CCCCCC3)s2)nn(-c2ccc(Cl)cc2Cl)c1-c1ccc(Cl)cc1 [Example 397, 2-(5-(4-chlorophenyl)-1-(2,4-dichlorophenyl)-4-ethyl-1H-pyrazol-3-yl)-5-cycloheptyl-1,3,4-thiadiazole] | –
8.10 | CCc1c(-c2nnc(C(C)CC)s2)nn(-c2ccc(Cl)cc2Cl)c1-c1ccc(Cl)cc1 (centres unmarked) [Example 398, 2-sec-butyl-5-(5-(4-chlorophenyl)-1-(2,4-dichlorophenyl)-4-ethyl-1H-pyrazol-3-yl)-1,3,4-thiadiazole] | –
7.21 | Cc1c(-c2nnc(C3CCCCC3)s2)nn(-c2ccccc2Cl)c1-c1ccc(Cl)cc1 [Example 408, 2-(1-(2-chlorophenyl)-5-(4-chlorophenyl)-4-methyl-1H-pyrazol-3-yl)-5-cyclohexyl-1,3,4-thiadiazole] | –
7.84 | CCCC(C)c1nnc(-c2nn(-c3ccc(Cl)cc3Cl)c(-c3ccc(Br)cc3)c2C)s1 (centres unmarked) [Example 413, 2-(5-(4-bromophenyl)-1-(2,4-dichlorophenyl)-4-methyl-1H-pyrazol-3-yl)-5-(pentan-2-yl)-1,3,4-thiadiazole] | –
8.10 | CCCCC(C)(C)c1nnc(-c2nn(-c3ccccc3Cl)c(-c3ccc(Cl)cc3)c2C)s1 [Example 415, 2-(1-(2-chlorophenyl)-5-(4-chlorophenyl)-4-methyl-1H-pyrazol-3-yl)-5-(2-methylhexan-2-yl)-1,3,4-thiadiazole] | –
6.33 | CCC(C)c1nnc(-c2nn(-c3ccc(Cl)cc3)c(-c3ccc(Br)cc3)c2C)s1 (centres unmarked) [Example 418, 2-(5-(4-bromophenyl)-1-(4-chlorophenyl)-4-methyl-1H-pyrazol-3-yl)-5-sec-butyl-1,3,4-thiadiazole] | –
7.21 | COC(C)(C)c1nnc(-c2nn(-c3ccc(Cl)cc3Cl)c(-c3ccc(Cl)cc3)c2C)s1 [Example 419, 2-(5-(4-chlorophenyl)-1-(2,4-dichlorophenyl)-4-methyl-1H-pyrazol-3-yl)-5-(2-methoxypropan-2-yl)-1,3,4-thiadiazole] | –
6.95 | CCC(C)(C)c1nnc(-c2nn(-c3ccc(Cl)cc3Cl)c(-c3ccccc3)c2C)s1 [Example 420, 2-(1-(2,4-dichlorophenyl)-4-methyl-5-phenyl-1H-pyrazol-3-yl)-5-tert-pentyl-1,3,4-thiadiazole] | –
6.65 | CCC(C)c1nnc(-c2nn(-c3ccc(Cl)cc3Cl)c(-c3ccccc3)c2C)s1 (centres unmarked) [Example 422, 2-sec-butyl-5-(1-(2,4-dichlorophenyl)-4-methyl-5-phenyl-1H-pyrazol-3-yl)-1,3,4-thiadiazole] | –
6.02 | Cc1c(-c2nnc(C3CCC3)s2)nn(-c2ccc(Cl)cc2)c1-c1ccc(Br)cc1 [Example 424, 2-(5-(4-bromophenyl)-1-(4-chlorophenyl)-4-methyl-1H-pyrazol-3-yl)-5-cyclobutyl-1,3,4-thiadiazole] | –
7.80 | CCC(C)c1nnc(-c2nn(-c3ccccc3Cl)c(-c3ccc(Br)cc3)c2C)s1 (centres unmarked) [Example 428, 2-(5-(4-bromophenyl)-1-(2-chlorophenyl)-4-methyl-1H-pyrazol-3-yl)-5-sec-butyl-1,3,4-thiadiazole] | –
7.86 | Cc1c(-c2nnc(C3(c4ccc(Cl)cc4)CC3)s2)nn(-c2ccc(Cl)cc2Cl)c1-c1ccc(Cl)cc1 [Example 430, 2-(5-(4-chlorophenyl)-1-(2,4-dichlorophenyl)-4-methyl-1H-pyrazol-3-yl)-5-(1-(4-chlorophenyl)cyclopropyl)-1,3,4-thiadiazole] | –

The next lines start with the molecule.

SMILES | pIC50 | IC50 [nM]
CCc1c(-c2nnc(C3CCC3)s2)nn(-c2ccc(Cl)cc2Cl)c1-c1ccc(Cl)cc1 [Example 395, 2-(5-(4-chlorophenyl)-1-(2,4-dichlorophenyl)-4-ethyl-1H-pyrazol-3-yl)-5-cyclobutyl-1,3,4-thiadiazole] | 7.66 | –
CCc1c(-c2nnc(C3CCCC3)s2)nn(-c2ccc(Cl)cc2Cl)c1-c1ccc(Cl)cc1 [Example 396, 2-(5-(4-chlorophenyl)-1-(2,4-dichlorophenyl)-4-ethyl-1H-pyrazol-3-yl)-5-cyclopentyl-1,3,4-thiadiazole] | 8.00 | –
CCc1c(-c2nnc(C(C)CC)s2)nn(-c2ccc(Cl)cc2Cl)c1-c1ccc(Br)cc1 (centres unmarked) [Example 399, 2-(5-(4-bromophenyl)-1-(2,4-dichlorophenyl)-4-ethyl-1H-pyrazol-3-yl)-5-sec-butyl-1,3,4-thiadiazole] | 8.12 | –
CCc1c(-c2nnc(C3CCCCCC3)s2)nn(-c2ccc(Cl)cc2Cl)c1-c1ccc(Br)cc1 [Example 400, 2-(5-(4-bromophenyl)-1-(2,4-dichlorophenyl)-4-ethyl-1H-pyrazol-3-yl)-5-cycloheptyl-1,3,4-thiadiazole] | 8.28 | –
Cc1c(-c2nnc(C(C)(C)c3ccccc3)s2)nn(-c2ccc(Cl)cc2Cl)c1-c1ccc(Cl)cc1 [Example 401, 2-(5-(4-chlorophenyl)-1-(2,4-dichlorophenyl)-4-methyl-1H-pyrazol-3-yl)-5-(2-phenylpropan-2-yl)-1,3,4-thiadiazole] | 8.16 | –
Cc1c(-c2nnc(C(C)(C)c3ccc(Cl)cc3)s2)nn(-c2ccc(Cl)cc2Cl)c1-c1ccc(Cl)cc1 [Example 402, 2-(5-(4-chlorophenyl)-1-(2,4-dichlorophenyl)-4-methyl-1H-pyrazol-3-yl)-5-(2-(4-chlorophenyl)propan-2-yl)-1,3,4-thiadiazole] | 8.27 | –
CCC(C)c1nnc(-c2nn(-c3ccc(Cl)cc3Cl)c(-c3ccc(Br)cc3)c2C)s1 (centres unmarked) [Example 403, 2-(5-(4-bromophenyl)-1-(2,4-dichlorophenyl)-4-methyl-1H-pyrazol-3-yl)-5-sec-butyl-1,3,4-thiadiazole] | 7.97 | –
CCc1c(-c2nnc(C(C)(C)c3ccccc3)s2)nn(-c2ccc(Cl)cc2Cl)c1-c1ccc(Br)cc1 [Example 404, 2-(5-(4-bromophenyl)-1-(2,4-dichlorophenyl)-4-ethyl-1H-pyrazol-3-yl)-5-(2-phenylpropan-2-yl)-1,3,4-thiadiazole] | 8.29 | –
Cc1c(-c2nnc(C(C)(C)C)s2)nn(-c2ccccc2Cl)c1-c1ccc(Cl)cc1 [Example 405, 2-tert-butyl-5-(1-(2-chlorophenyl)-5-(4-chlorophenyl)-4-methyl-1H-pyrazol-3-yl)-1,3,4-thiadiazole] | 7.83 | –
CCCCC(C)(C)c1nnc(-c2nn(-c3ccc(Cl)cc3Cl)c(-c3ccc(Cl)cc3)c2C)s1 [Example 406, 2-(5-(4-chlorophenyl)-1-(2,4-dichlorophenyl)-4-methyl-1H-pyrazol-3-yl)-5-(2-methylhexan-2-yl)-1,3,4-thiadiazole] | 7.56 | –
CCC(C)c1nnc(-c2nn(-c3ccccc3Cl)c(-c3ccc(Cl)cc3)c2C)s1 (centres unmarked) [Example 407, 2-sec-butyl-5-(1-(2-chlorophenyl)-5-(4-chlorophenyl)-4-methyl-1H-pyrazol-3-yl)-1,3,4-thiadiazole] | 7.74 | –
Cc1c(-c2nnc(C3CCC3)s2)nn(-c2ccccc2Cl)c1-c1ccc(Cl)cc1 [Example 409, 2-(1-(2-chlorophenyl)-5-(4-chlorophenyl)-4-methyl-1H-pyrazol-3-yl)-5-cyclobutyl-1,3,4-thiadiazole] | 7.24 | –
CCC(C)(C)c1nnc(-c2nn(-c3ccccc3Cl)c(-c3ccc(Cl)cc3)c2C)s1 [Example 410, 2-(1-(2-chlorophenyl)-5-(4-chlorophenyl)-4-methyl-1H-pyrazol-3-yl)-5-tert-pentyl-1,3,4-thiadiazole] | 7.93 | –
CCCCC(C)c1nnc(-c2nn(-c3ccccc3Cl)c(-c3ccc(Cl)cc3)c2C)s1 (centres unmarked) [Example 411, 2-(1-(2-chlorophenyl)-5-(4-chlorophenyl)-4-methyl-1H-pyrazol-3-yl)-5-(hexan-2-yl)-1,3,4-thiadiazole] | – | 13.5
CCCC(C)c1nnc(-c2nn(-c3ccc(Cl)cc3Cl)c(-c3ccc(Cl)cc3)c2CC)s1 (centres unmarked) [Example 412, 2-(5-(4-chlorophenyl)-1-(2,4-dichlorophenyl)-4-ethyl-1H-pyrazol-3-yl)-5-(pentan-2-yl)-1,3,4-thiadiazole] | – | 11
CCCC(C)c1nnc(-c2nn(-c3ccc(Cl)cc3Cl)c(-c3ccc(Br)cc3)c2CC)s1 (centres unmarked) [Example 414, 2-(5-(4-bromophenyl)-1-(2,4-dichlorophenyl)-4-ethyl-1H-pyrazol-3-yl)-5-(pentan-2-yl)-1,3,4-thiadiazole] | 8.04 | –
Cc1c(-c2nnc(C(C)(C)c3ccccc3)s2)nn(-c2ccccc2Cl)c1-c1ccc(Cl)cc1 [Example 416, 2-(1-(2-chlorophenyl)-5-(4-chlorophenyl)-4-methyl-1H-pyrazol-3-yl)-5-(2-phenylpropan-2-yl)-1,3,4-thiadiazole] | 8.03 | –
CCC(C)(C)c1nnc(-c2nn(-c3ccc(Cl)cc3)c(-c3ccc(Br)cc3)c2C)s1 [Example 417, 2-(5-(4-bromophenyl)-1-(4-chlorophenyl)-4-methyl-1H-pyrazol-3-yl)-5-tert-pentyl-1,3,4-thiadiazole] | 6.87 | –
Cc1c(-c2nnc(C(C)(C)C)s2)nn(-c2ccc(Cl)cc2Cl)c1-c1ccccc1 [Example 421, 2-tert-butyl-5-(1-(2,4-dichlorophenyl)-4-methyl-5-phenyl-1H-pyrazol-3-yl)-1,3,4-thiadiazole] | 6.80 | –
Cc1c(-c2nnc(C3CCC3)s2)nn(-c2ccc(Cl)cc2Cl)c1-c1ccccc1 [Example 423, 2-cyclobutyl-5-(1-(2,4-dichlorophenyl)-4-methyl-5-phenyl-1H-pyrazol-3-yl)-1,3,4-thiadiazole] | 6.77 | –
Cc1c(-c2nnc(C(C)(C)C)s2)nn(-c2ccccc2Cl)c1-c1ccc(Br)cc1 [Example 425, 2-(5-(4-bromophenyl)-1-(2-chlorophenyl)-4-methyl-1H-pyrazol-3-yl)-5-tert-butyl-1,3,4-thiadiazole] | 7.95 | –
Cc1c(-c2nnc(C3CCC3)s2)nn(-c2ccccc2Cl)c1-c1ccc(Br)cc1 [Example 427, 2-(5-(4-bromophenyl)-1-(2-chlorophenyl)-4-methyl-1H-pyrazol-3-yl)-5-cyclobutyl-1,3,4-thiadiazole] | 7.53 | –
CCC(C)(C)c1nnc(-c2nn(-c3ccccc3Cl)c(-c3ccc(Br)cc3)c2C)s1 [Example 429, 2-(5-(4-bromophenyl)-1-(2-chlorophenyl)-4-methyl-1H-pyrazol-3-yl)-5-tert-pentyl-1,3,4-thiadiazole] | 8.06 | –
